In ChEMBL document CHEMBL4321821, “Opioids as Substrates and Inhibitors of the Genetically Highly Variable Organic Cation Transporter OCT1” (J Med Chem, 2019):

T1: OCT1 (SLC22A1) (Homo sapiens, UniProt O15245)
T1 sequence (O15245 whole entry): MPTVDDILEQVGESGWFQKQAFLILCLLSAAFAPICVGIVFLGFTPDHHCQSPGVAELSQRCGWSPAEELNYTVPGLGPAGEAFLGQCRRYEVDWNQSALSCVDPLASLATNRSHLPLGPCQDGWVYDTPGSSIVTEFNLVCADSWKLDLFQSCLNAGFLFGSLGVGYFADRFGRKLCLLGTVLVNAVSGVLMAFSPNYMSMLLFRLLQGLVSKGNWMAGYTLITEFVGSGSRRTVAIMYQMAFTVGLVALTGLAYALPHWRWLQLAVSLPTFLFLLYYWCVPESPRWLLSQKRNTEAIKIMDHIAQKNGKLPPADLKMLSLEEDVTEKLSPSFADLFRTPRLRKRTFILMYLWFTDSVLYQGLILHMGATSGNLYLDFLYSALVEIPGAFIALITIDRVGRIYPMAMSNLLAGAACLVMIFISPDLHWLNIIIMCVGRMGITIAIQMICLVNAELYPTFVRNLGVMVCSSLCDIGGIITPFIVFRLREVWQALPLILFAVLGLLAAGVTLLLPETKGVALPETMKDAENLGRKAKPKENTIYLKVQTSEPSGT

T2: Solute carrier family 22 member 1 (Homo sapiens, UniProt O15245)
T2 sequence (O15245 whole entry): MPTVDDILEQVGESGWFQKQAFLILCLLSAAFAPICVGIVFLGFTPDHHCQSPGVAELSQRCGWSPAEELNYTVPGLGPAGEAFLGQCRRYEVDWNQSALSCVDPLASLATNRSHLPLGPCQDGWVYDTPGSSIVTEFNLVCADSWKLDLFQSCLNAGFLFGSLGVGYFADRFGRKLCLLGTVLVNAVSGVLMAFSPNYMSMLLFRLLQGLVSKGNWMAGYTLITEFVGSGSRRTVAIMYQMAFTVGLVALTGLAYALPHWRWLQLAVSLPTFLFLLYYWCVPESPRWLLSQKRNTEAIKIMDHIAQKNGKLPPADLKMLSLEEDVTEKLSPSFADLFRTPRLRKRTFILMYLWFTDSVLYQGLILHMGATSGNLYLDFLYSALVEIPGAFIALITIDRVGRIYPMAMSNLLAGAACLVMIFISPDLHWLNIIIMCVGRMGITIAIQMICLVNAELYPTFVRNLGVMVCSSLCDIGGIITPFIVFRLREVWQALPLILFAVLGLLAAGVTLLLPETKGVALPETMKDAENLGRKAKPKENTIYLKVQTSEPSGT


Key:
OCT1 (SLC22A1) [1] = target: T1, OCT1 (SLC22A1); experiment: Substrate activity at human OCT1 expressed in HEK293 cells assessed as increase in compound uptake at 0.05 uM incubated for 2 mins by LC-MS/MS analysis relative to control empty vector transfected cells; format: cell-based; conditions: HEK293 cells that express human OCT1, read-out: FC
[2] = target: T2, Solute carrier family 22 member 1; experiment: Inhibition of human OCT1 expressed in HEK293 cells assessed as reduction in ASP+ substrate uptake by microplate reader based analysis; format: cell-based
OCT1 (SLC22A1) [3] = target: T1, OCT1 (SLC22A1); experiment: Substrate activity at human OCT1 expressed in HEK293 cells assessed as increase in compound uptake at 0.5 uM incubated for 2 mins by LC-MS/MS analysis relative to control empty vector transfected cells; format: cell-based; conditions: HEK293 cells that express human OCT1, read-out: FC
OCT1 (SLC22A1) [4] = target: T1, OCT1 (SLC22A1); experiment: Substrate activity at human OCT1 expressed in HEK293 cells assessed as increase in compound uptake at 0.1 uM incubated for 2 mins by LC-MS/MS analysis relative to control empty vector transfected cells; format: cell-based; conditions: HEK293 cells that express human OCT1, read-out: FC
in vitro = conditions: PAMPA
Description: Passive membrane permeability by LC-MS/MS analysis based PAMPA

[5] = Cmax in human at 86 mg, po dosed as prolonged release formulation; format: ADME, organism-based; set-up: dose 86 mg, route oral; conditions: in vivo
[6] = Unbound maximal portal vein concentration of in human at 34 mg, iv; format: ADME, tissue-based; conditions: in vivo
[7] = Ratio of unbound Cmax in human at 86 mg, po dosed as prolonged release formulation to inhibition of human OCT1 expressed in HEK293 cells assessed as reduction in ASP+ substrate uptake by microplate reader based analysis; format: ADME, organism-based; conditions: in vivo
[8] = Cmax in human at 34 mg, iv; format: ADME; set-up: dose 34 mg, route intravenous; conditions: in vivo
[9] = Unbound maximal portal vein concentration of in human at 86 mg, po dosed as prolonged release formulation; format: ADME, organism-based; conditions: in vivo
[10] = Unbound Cmax in human at 80 mg, po dosed as immediate release formulation; format: ADME, organism-based; conditions: in vivo
[11] = Ratio of unbound Cmax in human at 80 mg, po dosed as immediate release formulation to inhibition of human OCT1 expressed in HEK293 cells assessed as reduction in ASP+ substrate uptake by microplate reader based analysis; format: ADME, organism-based; conditions: in vivo
[12] = Unbound Cmax in human at 86 mg, po dosed as prolonged release formulation; format: ADME, organism-based; conditions: in vivo
[13] = Ratio of unbound maximal portal vein concentration in human at 80 mg, po dosed as immediate release formulation to inhibition of human OCT1 expressed in HEK293 cells assessed as reduction in ASP+ substrate uptake by microplate reader based analysis; format: ADME, organism-based; conditions: in vivo
[14] = Unbound Cmax in human at 34 mg, iv; format: ADME; conditions: in vivo
[15] = Ratio of unbound Cmax in human at 34 mg, iv to inhibition of human OCT1 expressed in HEK293 cells assessed as reduction in ASP+ substrate uptake by microplate reader based analysis; format: ADME, organism-based; conditions: in vivo
[16] = Ratio of unbound maximal portal vein concentration in human at 86 mg, po dosed as prolonged release formulation to inhibition of human OCT1 expressed in HEK293 cells assessed as reduction in ASP+ substrate uptake by microplate reader based analysis; format: ADME, organism-based; conditions: in vivo
[17] = Unbound maximal portal vein concentration of in human at 80 mg, po dosed as immediate release formulation; format: ADME, organism-based; conditions: in vivo
[18] = Cmax in human at 80 mg, po dosed as immediate release formulation; format: ADME, organism-based; set-up: dose 80 mg, route oral; conditions: in vivo
[19] = Ratio of unbound maximal portal vein concentration in human at 34 mg, iv to inhibition of human OCT1 expressed in HEK293 cells assessed as reduction in ASP+ substrate uptake by microplate reader based analysis; format: ADME, organism-based; conditions: in vivo
[20] = Cmax in human at 60 mg, po; format: ADME; set-up: dose 60 mg, route oral; conditions: in vivo
[21] = Ratio of unbound maximal portal vein concentration in human at 60 mg, po to inhibition of human OCT1 expressed in HEK293 cells assessed as reduction in ASP+ substrate uptake by microplate reader based analysis; format: ADME, organism-based; conditions: in vivo
[22] = Unbound Cmax in human at 60 mg, po; format: ADME; conditions: in vivo
[23] = Unbound maximal portal vein concentration of in human at 60 mg, po; format: ADME, tissue-based; conditions: in vivo
[24] = Ratio of unbound Cmax in human at 60 mg, po to inhibition of human OCT1 expressed in HEK293 cells assessed as reduction in ASP+ substrate uptake by microplate reader based analysis; format: ADME, organism-based; conditions: in vivo
[25] = substrate: C[N+]1(CC2CC2)CC[C@]23c4c5ccc(O)c4O[C@H]2C(=O)CC[C@@]3(O)[C@H]1C5; experiment: Substrate activity at human OCT3 expressed in HEK293 cells assessed as increase in compound uptake by measuring Km incubated for 2 mins by LC-MS/MS analysis based Michaelis-Menten plot analysis relative to control empty vector transfected cells; format: cell-based
[26] = substrate: CNS(=O)(=O)Cc1ccc2[nH]cc(CCN(C)C)c2c1; experiment: Substrate activity at human OCT1 expressed in HEK293 cells assessed as increase in compound uptake by measuring Km incubated for 2 mins by LC-MS/MS analysis based Michaelis-Menten plot analysis relative to control empty vector transfected cells; format: cell-based

Molecule | uptake ratio at 2 min, 0.05 µM (OCT1 (SLC22A1) [1]) | IC50 [2] [µM] | uptake ratio at 2 min, 0.5 µM (OCT1 (SLC22A1) [3]) | uptake ratio at 2 min, 0.1 µM (OCT1 (SLC22A1) [4]) | Papp (in vitro) [×10⁻⁶ cm/s] | further results
CCC1(c2cccc(O)c2)CCCCN(C)C1 (configuration not stated) [MEPTAZINOL] | 0.8 | 19 | 3.2 | 2.2 | 14.3 | –
COc1ccc2c3c1O[C@H]1C(=O)CC[C@H]4[C@@H](C2)N(C)CC[C@]314 [HYDROCODONE] | 0.9 | 537 | 1.2 | 1.6 | 9.1 | –
COc1ccc2c3c1O[C@H]1[C@@H](O)C=C[C@H]4[C@@H](C2)N(C)CC[C@@]341 [CODEINE] | 0.7 | 236 | 0.8 | 1 | 8 | –
CN1CC[C@]23CCCC[C@H]2[C@H]1Cc1ccc(O)cc13 [LEVORPHANOL] | 1.5 | 8 to 8.48 | 1.3 | 1.7 | 9.2 | –
CN1CC[C@]23c4c5ccc(O)c4O[C@H]2C(=O)CC[C@@]3(O)[C@H]1C5 [OXYMORPHONE] | 2.4 | 250 | 0.9 | 1.3 | 3.2 | –
CC[C@@H](c1cccc(O)c1)[C@@H](C)CN(C)C [TAPENTADOL] | 0.9 | 21.9 | 1.5 | 1.6 | 13.6 | Cmax [5]: 100 nM; fCmax [6]: 8.13 µM; Ratio [7]: 0.004; Cmax [8]: 1100 nM; fCmax [9]: 18.43 µM; fCmax [10]: 0.23 µM; Ratio [11]: 0.011; fCmax [12]: 0.08 µM; Ratio [13]: 0.849; fCmax [14]: 0.88 µM; Ratio [15]: 0.04; Ratio [16]: 0.842; fCmax [17]: 18.58 µM; Cmax [18]: 290 nM; Ratio [19]: 0.371
CN1CC[C@@]23CCCC[C@@H]2[C@@H]1Cc1ccc(O)cc13 [DEXTRORPHAN] | 2.1 | 6 to 6.4 | 1.5 | 1.9 | 5.4 | –
COc1cccc([C@@]2(O)CCCC[C@@H]2CN(C)C)c1 [(R,R)-TRAMADOL] | – | 88.8 | – | – | 26.9 | –
COc1ccc2c(c1)[C@@]13CCCC[C@H]1[C@@H](C2)NCC3 | 2.5 | 10 to 10.3 | 2 | 2.2 | 17.2 | –
CCOC(=O)C1(c2ccccc2)CCN(C)CC1 [MEPERIDINE] | 1.1 | 22.3 | 1.2 | 1.2 | 40.2 | –
Oc1ccc2c(c1)[C@@]13CCCC[C@H]1[C@@H](C2)NCC3 [NORLEVORPHANOL] | 14 | 24.9 to 25 | 17.4 | 14.9 | 0.7 | –
COc1ccc2c3c1O[C@H]1C(=O)CC[C@@]4(O)[C@@H](C2)NCC[C@]314 | 4 | 200 | 3.6 | 3.9 | 0.9 | –
COc1ccc2c(c1)[C@]13CCCC[C@@H]1[C@H](C2)N(C)CC3 [DEXTROMETHORPHAN] | 1.1 | 15 to 15.1 | 0.8 | 1.3 | 63.7 | Cmax [20]: 20 nM; Ratio [21]: 0.302; fCmax [22]: 0.007 µM; fCmax [23]: 4.57 µM; Ratio [24]: 0.0004
O=C1CC[C@@]2(O)[C@H]3Cc4ccc(O)c5c4[C@@]2(CCN3CC2CC2)[C@H]1O5 [NALTREXONE] | 0.8 | 158 | 1 | 0.8 | 15.1 | –
CNC[C@H]1CCCC[C@]1(O)c1cccc(OC)c1 | – | 55.7 | – | – | 13.4 | –
Solute carrier family 22 member 3 (Homo sapiens) (protein) MPSFDEALQRVGEFGRFQRRVFLLLCLTGVTFAFLFVGVVFLGTQPDHYWCRGPSAAALAERCGWSPEEEWNRTAPASRGPEPPERRGRCQRYLLEAANDSASATSALSCADPLAAFPNRSAPLVPCRGGWRYAQAHSTIVSEFDLVCVNAWMLDLTQAILNLGFLTGAFTLGYAADRYGRIVIYLLSCLGVGVTGVVVAFAPNFPVFVIFRFLQGVFGKGTWMTCYVIVTEIVGSKQRRIVGIVIQMFFTLGIIILPGIAYFIPNWQGIQLAITLPSFLFLLYYWVVPESPRWLITRKKGDKALQILRRIAKCNGKYLSSNYSEITVTDEEVSNPSFLDLVRTPQMRKCTLILMFAWFTSAVVYQGLVMRLGIIGGNLYIDFFISGVVELPGALLILLTIERLGRRLPFAASNIVAGVACLVTAFLPEGIAWLRTTVATLGRLGITMAFEIVYLVNSELYPTTLRNFGVSLCSGLCDFGGIIAPFLLFRLAAVWLELPLIIFGILASICGGLVMLLPETKGIALPETVDDVEKLGSPHSCKCGRNKKTPVSRSHL | – | – | – | – | – | Km [25]: 22.5 µM; Vmax [25]: 1.75e-05 µmol/min/mg
Solute carrier family 22 member 1 (Homo sapiens) (protein) MPTVDDILEQVGESGWFQKQAFLILCLLSAAFAPICVGIVFLGFTPDHHCQSPGVAELSQRCGWSPAEELNYTVPGLGPAGEAFLGQCRRYEVDWNQSALSCVDPLASLATNRSHLPLGPCQDGWVYDTPGSSIVTEFNLVCADSWKLDLFQSCLNAGFLFGSLGVGYFADRFGRKLCLLGTVLVNAVSGVLMAFSPNYMSMLLFRLLQGLVSKGNWMAGYTLITEFVGSGSRRTVAIMYQMAFTVGLVALTGLAYALPHWRWLQLAVSLPTFLFLLYYWCVPESPRWLLSQKRNTEAIKIMDHIAQKNGKLPPADLKMLSLEEDVTEKLSPSFADLFRTPRLRKRTFILMYLWFTDSVLYQGLILHMGATSGNLYLDFLYSALVEIPGAFIALITIDRVGRIYPMAMSNLLAGAACLVMIFISPDLHWLNIIIMCVGRMGITIAIQMICLVNAELYPTFVRNLGVMVCSSLCDIGGIITPFIVFRLREVWQALPLILFAVLGLLAAGVTLLLPETKGVALPETMKDAENLGRKAKPKENTIYLKVQTSEPSGT | – | – | – | – | – | Km [26]: 55 µM
